Reference: patent US12157730B2, “Heteroaryl derivative, method for producing same, and pharmaceutical composition comprising same as effective component” (VORONOI INC., priority 2019, dated 2024)

Biological target: T1, Ba/F3 cell EGFR Exon20 ins NPH (Homo sapiens, UniProt P00533, INS773NPH)
T1 construct: expressed in transfected cells; host or cells: Ba/F3
Assay: Ba/F3 cell proliferation suppression, EGFR Exon20 ins NPH
Type: cell-based
Conditions: GI50 class; Ba/F3 cell line with NPH inserted at Exon20 of EGFR; 72 hours
Summary of the method: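 After 72 h compound exposure (twelve 3-fold steps, 0.3 nM–50 um final), live cells were measured by CellTiter-Glo luminescence and growth expressed as % of control to derive GI50. Cells were seeded at 3000–5000 per well a day earlier; Ba/F3 medium contained IL-3; three repeats.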

Row | SMILES | Ba/F3 (NPH) Activity
1 | C=CC(=O)Nc1cc(Nc2cc(N3OCC[C@@H]3Cc3cccnc3)ncn2)c(OC)cc1N1CCC(N2CCN(C3CC3)[C@@H](C)C2)CC1 [compound 1057, N-(2-(4-((S)-4-cyclopropyl-3-methylpiperazine-1-yl)piperidine-1-yl)-4-methoxy-5-((6-((S)-3-(pyridine-3-ylmethyl)isoxazolidine-2-yl)pyrimidine-4-yl)amino)phenyl)acrylamide] | B (50 nM ≤ GI50 < 500 nM)
2 | C=CC(=O)Nc1cc(Nc2cc(N3OCC[C@@H]3c3cccc(Cl)c3Cl)ncn2)c(OC)cc1N1C[C@@H]2C[C@H]1CN2CC [compound 524, N-(5-((6-((R)-3-(2,3-dichlorophenyl)isoxazolidine-2-yl)pyrimidine-4-yl)amino)-2-((1S,4S)-5-ethyl-2,5-diazabicyclo[2.2.1]heptane-2-yl)-4-methoxyphenyl) acrylamide] | A (GI50 < 50 nM)
3 | C=CC(=O)Nc1cc(Nc2cc(N3OCC[C@H]3Cc3ccccc3)ncn2)c(OC)cc1N1CCN(C2CCN(C)CC2)CC1 [compound 974, N-(5-((6-((R)-3-benzylisoxazolidine-2-yl)pyrimidine-4-yl)amino)-4-methoxy-2-(4-(1-methylpiperidine-4-yl)piperazine-1-yl)phenyl)acrylamide] | C (500 nM ≤ GI50 < 5000 nM)
4 | C=CC(=O)Nc1cc(Nc2cc(N3OCC[C@@H]3c3ccc(Cl)c(Cl)c3F)ncn2)c(OC)cc1N1CCC(N2CCN(C3CC3)CC2)CC1 [Example 60, N-(2-(4-(4-cyclopropylpiperazine-1-yl)piperidine-1-yl)-5-((6-((R)-3-(3,4-dichloro-2-fluorophenyl)isoxazolidine-2-yl)pyrimidine-4-yl)amino)-4-methoxyphenyl) acrylamide;] | A (GI50 < 50 nM)
5 | C=CC(=O)Nc1cc(Nc2cc(N3OCC[C@@H]3c3cccc(Cl)c3C)ncn2)c(OC)cc1N1CCC(N2C[C@@H]3C[C@H]2CO3)CC1 [compound 531, N-(2-(4-((1S,4S)-2-oxa-5-azabicyclo[2.2.1]heptane-5-yl)piperidine-1-yl)-5-((6-((R)-3-(3-chloro-2-methylphenyl)isoxazolidine-2-yl)pyrimidine-4-yl)amino)-4-methoxyphenyl) acrylamide] | A (GI50 < 50 nM)
6 | C=CC(=O)Nc1cc(Nc2cc(N3OCC[C@@H]3c3cc(F)cc(F)c3)ncn2)c(OC)cc1N1CCC(N2CCN3CCCC3C2)CC1 (stereo partly drawn) [compound 852, N-(5-((6-((R)-3-(3,5-difluorophenyl)isoxazolidine-2-yl)pyrimidine-4-yl)amino)-2-(4-(hexahydropyrrolo [1,2-a]pyrazine-2(1H)-yl)piperidine-1-yl)-4-methoxyphenyl) acrylamide] | A (GI50 < 50 nM)
7 | C=CC(=O)Nc1cc(Nc2cc(N3OCC[C@@H]3c3cc(F)ccc3F)ncn2)c(OC)cc1N1CCC(N2CCCN(C3CC3)CC2)CC1 [compound 829, N-(2-(4-(4-cyclopropyl-1,4-diazepane-1-yl)piperidine-1-yl)-5-((6-((R)-3-(2,5-difluorophenyl)isoxazolidine-2-yl)pyrimidine-4-yl)amino)-4-methoxyphenyl) acrylamide] | A (GI50 < 50 nM)
8 | C=CC(=O)Nc1cc(Nc2cc(N3OCC[C@@H]3c3c(F)cccc3F)ncn2)c(OC)cc1N1CCC(N2CCN(C3CC3)[C@H](C)C2)CC1 [Example 137, N-(2-(4-((R)-4-cyclopropyl-3-methylpiperazine-1-yl)piperidine-1-yl)-5-((6-((R)-3-(2,6-difluorophenyl)isoxazolidine-2-yl)pyrimidine-4-yl)amino)-4-methoxyphenyl) acrylamide] | B (50 nM ≤ GI50 < 500 nM)
9 | C=CC(=O)Nc1cc(Nc2cc(N3OCC[C@@H]3c3ccc(Cl)c(Cl)c3)ncn2)c(OC)cc1N1CCC(N2C[C@H]3C[C@@H]2CO3)CC1 [compound 690] | A (GI50 < 50 nM)
10 | C=CC(=O)Nc1cc(Nc2cc(N3OCC[C@@H]3c3ccc(Cl)cc3F)ncn2)c(OC)cc1N(C)CCN(C)C [compound 371, N-(5-((6-((R)-3-(4-chloro-2-fluorophenyl)isoxazolidine-2-yl)pyrimidine-4-yl)amino)-2-((2-(dimethylamino)ethyl)(methyl)amino)-4-methoxyphenyl) acrylamide] | A (GI50 < 50 nM)
11 | C=CC(=O)Nc1cc(Nc2cc(N3OCC[C@@H]3c3ccc(Cl)cc3F)ncn2)c(OC)cc1N1CCC(N2CCN(CC)CC2)CC1 [compound 409, N-(5-((6-((R)-3-(4-chloro-2-fluorophenyl)isoxazolidine-2-yl)pyrimidine-4-yl)amino)-2-(4-(4-ethylpiperazine-1-yl)piperidine-1-yl)-4-methoxyphenyl) acrylamide] | A (GI50 < 50 nM)

Other lines, results leading:

Row | Ba/F3 (NPH) Activity | SMILES
12 | A (GI50 < 50 nM) | C#Cc1cccc([C@H]2CCON2c2cc(Nc3cc(NC(=O)C=C)c(N4CCC(N5CCN(CC=C)CC5)CC4)cc3OC)ncn2)c1 [Example 216, N-(2-(4-(4-allylpiperazine-1-yl)piperidine-1-yl)-5-((6-((R)-3-(3-ethynylphenyl)isoxazolidine-2-yl)pyrimidine-4-yl)amino)-4-methoxyphenyl) acrylamide]
13 | A (GI50 < 50 nM) | C=CC(=O)Nc1cc(Nc2cc(N3OCC[C@@H]3c3ccc(F)cc3F)ncn2)c(OC)cc1N1CCN(C2CC2)[C@@H](C)C1 [compound 479, N-(2-((S)-4-cyclopropyl-3-methylpiperazine-1-yl)-5-((6-((R)-3-(2,4-difluorophenyl)isoxazolidine-2-yl)pyrimidine-4-yl)amino)-4-methoxyphenyl) acrylamide]
14 | A (GI50 < 50 nM) | C=CC(=O)Nc1cc(Nc2cc(N3OCC[C@@H]3c3cc(F)ccc3F)ncn2)c(OC)cc1N1CCC(N2CCC(F)(F)CC2)CC1 [compound 817, N-(2-(4,4-difluoro-[1,4'-bipiperidine]-1'-yl)-5-((6-((R)-3-(2,5-difluorophenyl)isoxazolidine-2-yl)pyrimidine-4-yl)amino)-4-methoxyphenyl) acrylamide]
15 | A (GI50 < 50 nM) | C=CC(=O)Nc1cc(Nc2cc(N3OCC[C@@H]3c3ccc(F)cc3)ncn2)c(OC)cc1N1CCC(N2CCN(C(C)=O)CC2)CC1 [compound 809, N-(2-(4-(4-acetylpiperazine-1-yl)piperidine-1-yl)-5-((6-((R)-3-(4-fluorophenyl)isoxazolidine-2-yl)pyrimidine-4-yl)amino)-4-methoxyphenyl) acrylamide]
16 | A (GI50 < 50 nM) | C=CC(=O)Nc1cc(Nc2cc(N3OCC[C@@H]3c3cc(F)cc(Cl)c3)ncn2)c(OC)cc1N1CCN(C2COC2)CC1 [compound 597, N-(5-((6-((R)-3-(3-chloro-5-fluorophenyl)isoxazolidine-2-yl)pyrimidine-4-yl)amino)-4-methoxy-2-(4-(oxetane-3-yl)piperazine-1-yl)phenyl) acrylamide]
17 | A (GI50 < 50 nM) | C=CC(=O)Nc1cc(Nc2cc(N3OCC[C@@H]3c3cccc(Cl)c3)ncn2)c(OC)cc1N1CC[C@H](N(C)C)C1 [compound 468, N-(5-((6-((R)-3-(3-chlorophenyl)isoxazolidine-2-yl)pyrimidine-4-yl)amino)-2-((S)-3-(dimethylamino)pyrolidine-1-yl)-4-methoxyphenyl) acrylamide]
18 | A (GI50 < 50 nM) | C=CC(=O)Nc1cc(Nc2cc(N3OCC[C@@H]3c3cccc(F)c3)ncn2)c(OC)cc1N1CCC(N2C[C@@H]3C[C@H]2CN3CC)CC1 [compound 835, N-(2-(4-((1S,4S)-5-ethyl-2,5-diazabicyclo[2.2.1]heptane-2-yl)piperidine-1-yl)-5-((6-((R)-3-(3-fluorophenyl)isoxazolidine-2-yl)pyrimidine-4-yl)amino)-4-methoxyphenyl) acrylamide]
19 | A (GI50 < 50 nM) | C=CC(=O)Nc1cc(Nc2cc(N3OCC[C@@H]3c3cccc(F)c3)ncn2)c(OC)cc1N1CCN(C(C)=O)CC1 [compound 831, N-(2-(4-acetylpiperazine-1-yl)-5-((6-((R)-3-(3-fluorophenyl)isoxazolidine-2-yl)pyrimidine-4-yl)amino)-4-methoxyphenyl) acrylamide]
20 | A (GI50 < 50 nM) | C=CC(=O)Nc1cc(Nc2cc(N3OCC[C@@H]3c3ccc(F)c(F)c3)ncn2)c(OC)cc1N1CCC(N2CCN(CCC)CC2)CC1 [compound 547, N-(5-((6-((R)-3-(3,4-difluorophenyl)isoxazolidine-2-yl)pyrimidine-4-yl)amino)-4-methoxy-2-(4-(4-propylpiperazine-1-yl)piperidine-1-yl)phenyl) acrylamide]
21 | A (GI50 < 50 nM) | C=CC(=O)Nc1cc(Nc2cc(N3OCC[C@@H]3c3ccc(F)c(Cl)c3)ncn2)c(OC)cc1N1CCC(N2CC[C@H](N(C)C)C2)CC1 [compound 764, N-(5-((6-((R)-3-(3-chloro-4-fluorophenyl)isoxazolidine-2-yl)pyrimidine-4-yl)amino)-2-(4-((S)-3-(dimethylamino)pyrolidine-1-yl)piperidine-1-yl)-4-methoxyphenyl) acrylamide]
22 | B (50 nM ≤ GI50 < 500 nM) | C=CC(=O)Nc1cc(Nc2cc(N3OCC[C@@H]3c3cccc(C#N)c3)ncn2)c(OC)cc1N1CCC(N2CC[C@@H](N(C)C)C2)CC1 [compound 492, N-(5-((6-((R)-3-(3-cyanophenyl)isoxazolidine-2-yl)pyrimidine-4-yl)amino)-2-(4-((R)-3-(dimethylamino)pyrolidine-1-yl)piperidine-1-yl)-4-methoxyphenyl) acrylamide]
23 | A (GI50 < 50 nM) | C=CC(=O)Nc1cc(Nc2cc(N3OCC[C@@H]3c3cccc(OC)c3)ncn2)c(OC)cc1N1CCC(N2CCN(C3CC3)CC2)CC1 [Example 65, N-(2-(4-(4-cyclopropylpiperazine-1-yl)piperidine-1-yl)-4-methoxy-5-((6-((R)-3-(3-methoxyphenyl)isoxazolidine-2-yl)pyrimidine-4-yl)amino)phenyl) acrylamide]
